Reference: publication PMC5441580, “GPR40 partial agonist MK-2305 lower fasting glucose in the Goto Kakizaki rat via suppression of endogenous glucose production” (PLoS ONE, 2017)
Several values for one entry are separate records, joined by “and”; a condition that tells them apart may be missing. Equal values may be shown once.

Columns and labels:
GK rats [1] = assay: GK rat acute oral glucose tolerance test (OGTT) with insulin co-measurement; type: in vivo; parameters: Blood Glucose AUC / Insulin AUC: unit not given here; details: for Blood Glucose / Insulin (plasma) / Insulin AUC / Blood Glucose AUC: individual GK rats; for Insulin AUC: OGTT t = 0 to 60 min; for Blood Glucose AUC: OGTT t = 0 to 120 min
Description: On the day of the study, male GK rats were bled via tail snip, and blood glucose was measured via glucometer (OneTouch Ultra, Lifescan Inc., Milpitas, CA). Fed glucose was measured at 8 A.M. (lights on 7 A.M.– 7 P.M.) and used to select and sort animals into treatment groups (n = 8/ GK group, plus n = 6/WKY control group). Animals were then placed into clean cages, and food was removed. […] Dosages from 0.3–10 mg MK-2305 / kg body weight were tested. Both the GK and WKY control groups received vehicle (0.5% methylcellulose). Blood glucose was measured again (time = 0) immediately prior to a dextrose challenge of 1 g/kg at 10 ml/kg dose volume (Dextrose, Hospira Inc., Lake Forrest IL) and then again at 20, 40, 60, and 120 min after the glucose challenge. Insulin was co-measured to test the glucose-dependent secretory response to MK-2305 delivered acutely PO. […] […] Values of percent inhibition vs. vehicle for each treatment were generated from the AUC data. Maximally efficacious dose (MED) was defined as the minimum dosage generating a maximum inhibition of glucose excursion achieved with this compound in the OGTT assay.
Plasma was analyzed for triglycerides, NEFA, and HbA1C using a P Modular Roche Clinical Chemistry analyzer. Liver triglycerides were extracted as described by Bligh and Dyer, and were measured using the Infinity triglyceride assay kit (Thermo Scientific, Rockford, IL). Plasma insulin levels were measured via EIA (Mesoscale Discovery ELISA Kit, Gaithersburg MD).

GK rats [2] = assay: endogenous glucose production in vivo, 2H/13C dual tracer, chronic treatment, GK rats; parameters: species or system rat; details: 10 mg/kg, individual animals
Description: To evaluate whether MK-2305 treatment produced an effect on EGP in vivo, a ^2H/^13C dual tracer approach was used to calculate EGP and its contributing sources. On the day of the study, GK rats were bled via tail snip, and blood glucose was measured via glucometer. Ambient glucose was measured at 8 A.M. and used to sort animals into treatment groups (n = 8 per group). 0.9% NaCl salinated D2O (Sigma-Aldrich, St. Louis, MO) was administered to all animals via IP injection at dose volume of 20 ml/kg. Animals were then placed in clean cages and food was removed. After a 5 hour fast, blood glucose was measured and animals were dosed PO with MK-2305 at 10 mg/kg (5 ml/kg) or vehicle (0.5% methylcellulose) immediately followed by 50 mg/kg [U-^13C] glucose (Sigma-Aldrich) IP at 5 ml/kg. Blood was collected via tail snip at time points from 60–150 min post treatment to measure blood glucose as well as endogenous (^12C-glucose) and exogenous (^13C-glucose) via GCMS. Following the last tail blood collection, rats were anesthetized with isoflurane and cardiac blood was collected into K2EDTA tubes (Becton, Dickinson and Co., Franklin Lakes, NJ).
The serially collected blood samples were analyzed for ^13C-glucose enrichment using GC-MS analysis. The % ^13C glucose enrichments were then combined with the total glucose readings to calculate the concentration of ^13C-glucose, and these values were modeled with a two-compartment model of whole body glucose metabolism to calculate the average EGP for the period from 0–150 minutes.
Terminal blood samples were analyzed for relative ^2H enrichment in plasma glucose using the monoacetone glucose method. Briefly, samples were extracted with 70% perchloric acid and centrifuged at 25,000 rcf for 10 min at 4°C. The supernatant was collected and the pH was adjusted to 6–8 using KOH. The samples were then lyophilized overnight. To convert plasma glucose to monoacetone glucose (MAG), acetone and concentrated sulfuric acid were added to the lyophilized samples and stirred for 4 hours at room temperature. Water was then added and the pH adjusted to 2.0 with 3M Na2CO3. Samples were stirred moderately for 18 hours at room temperature, the pH was adjusted to 7 with 3M Na2CO3, and the samples were completely dried by speed vacuum concentration. The resulting MAG samples were then extracted in hot ethyl acetate, dried overnight under a stream of N2 gas, purified using Discovery DSC-18 SPE columns (6 ml, 1 g bed weight), and freeze dried. […] The ^2H NMR spectra of the MAG samples were then analyzed using in–house developed Matlab (The Mathworks Inc, Natick, MA) to model the NMR peaks with a Lorentzian line shape, and the results were used to calculate integrals for each of the seven NMR resonances in the MAG spectrum. […]

[3] = 10 mg/kg PO, GK rats, p < 0.001
[4] = 0.3 mpk PO, 60 min after glucose challenge
[5] = 1 mpk PO, 60 min after glucose challenge
[6] = 3 mpk PO, 60 min after glucose challenge
[7] = 10 mpk PO, 60 min after glucose challenge

SMILES: O=C1NC(=O)C(C2CCOc3cc(Oc4ccc(C(F)(F)F)cc4Cl)ccc32)S1 (stereo not drawn) [MK-2305]
- decrease of glucose AUC vs. vehicle in OGTT (GK rats [1]; 0.3 mg/kg PO, GK rats, p < 0.001): 18%
- increase in plasma insulin vs. vehicle during OGTT (GK rats [1]; 1 mg/kg PO, GK rats, p < 0.001): 59%
- increase in plasma insulin vs. vehicle during OGTT (GK rats [1]; 3 mg/kg PO, GK rats, p < 0.001): 83%
- reduction in glucose AUC from vehicle in OGTT (GK rats [1]; 3 mg/kg PO, GK rats, p < 0.001): 40%
- decrease of glucose AUC vs. vehicle in OGTT (GK rats [1]; [3]): 54%
- increase in plasma insulin vs. vehicle during OGTT (GK rats [1]; [3]): 124%
- Blood Glucose (GK rats [1]; 0.3 mpk PO, 40 min after glucose challenge): 254 mg/dl and 284 mg/dl and 328 mg/dl and 294 mg/dl (2×) and 264 mg/dl and 219 mg/dl and 321 mg/dl
- Blood Glucose (GK rats [1]; [4]): 197 mg/dL and 204 mg/dL and 264 mg/dL and 233 mg/dL and 229 mg/dL and 270 mg/dL and 209 mg/dL and 330 mg/dL
- Insulin (plasma) (GK rats [1]; [4]): 1.219 ng/mL and 1.901 ng/mL and 1.676 ng/mL and 1.551 ng/mL and 1.782 ng/mL and 1.959 ng/mL and 1.355 ng/mL and 1.696 ng/mL
- Blood Glucose (GK rats [1]; 0.3 mpk PO, 120 min after glucose challenge): 149 mg/dL and 196 mg/dL and 217 mg/dL and 188 mg/dL and 177 mg/dL and 203 mg/dL and 145 mg/dL and 249 mg/dL
- Insulin AUC (GK rats [1]; 0.3 mpk PO): 107.011 and 73.5773 and 77.5052 and 96.9965 and 105.345 and 92.3289 and 113.426 and 113.509
- Blood Glucose AUC (GK rats [1]; 0.3 mpk PO): 30355 and 22170 and 34265 and 24465 and 25900 and 30390 and 27140 and 25850
- Insulin (plasma) (GK rats [1]; 0.3 mpk PO, time 0 min (before glucose challenge)): 1.527 ng/mL and 1.4 ng/mL and 1.238 ng/mL and 1.748 ng/mL and 1.648 ng/mL and 1.595 ng/mL and 1.041 ng/mL and 1.268 ng/mL
- Insulin (plasma) (GK rats [1]; 0.3 mpk PO, time -70 min (before dosing)): 0.785 ng/mL and 1.027 ng/mL and 1.247 ng/mL and 1.425 ng/mL and 1.262 ng/mL and 0.879 ng/mL and 0.539 ng/mL and 0.638 ng/mL
- Blood Glucose (GK rats [1]; 1 mpk PO, 40 min after glucose challenge): 191 mg/dL and 247 mg/dL and 193 mg/dL and 178 mg/dL and 222 mg/dL and 184 mg/dL and 221 mg/dL and 228 mg/dL
- Blood Glucose (GK rats [1]; [5]): 162 mg/dL and 197 mg/dL and 120 mg/dL and 151 mg/dL and 200 mg/dL and 153 mg/dL and 188 mg/dL and 185 mg/dL
- Insulin (plasma) (GK rats [1]; [5]): 1.868 ng/mL and 1.957 ng/mL and 1.358 ng/mL and 2.073 ng/mL and 2.523 ng/mL and 1.285 ng/mL and 2.265 ng/mL and 1.751 ng/mL
- Blood Glucose (GK rats [1]; 1 mpk PO, 120 min after glucose challenge): 120 mg/dL and 147 mg/dL and 101 mg/dL and 113 mg/dL and 162 mg/dL and 119 mg/dL and 110 mg/dL and 132 mg/dL
- Insulin AUC (GK rats [1]; 1 mpk PO): 127.564 and 125.822 and 145.583 and 145.346 and 124.296 and 92.8339 and 131.803 and 160.953
- Blood Glucose AUC (GK rats [1]; 1 mpk PO): 18600 and 21570 and 21405 and 19360 and 22440 and 17695 and 17840 and 23185
- Insulin (plasma) (GK rats [1]; 1 mpk PO, time 0 min (before glucose challenge)): 1.711 ng/mL and 2.457 ng/mL and 1.219 ng/mL and 2.149 ng/mL and 2.161 ng/mL and 2.386 ng/mL and 1.648 ng/mL and 2.525 ng/mL
- Insulin (plasma) (GK rats [1]; 1 mpk PO, time -70 min (before dosing)): 0.867 ng/mL and 1.049 ng/mL and 0.952 ng/mL and 1.247 ng/mL and 1.294 ng/mL and 0.937 ng/mL and 1.068 ng/mL and 1.695 ng/mL
- Blood Glucose (GK rats [1]; 3 mpk PO, 40 min after glucose challenge): 134 mg/dl and 184 mg/dl and 174 mg/dl (2×) and 183 mg/dl and 148 mg/dl and 181 mg/dl and 197 mg/dl
- Blood Glucose (GK rats [1]; [6]): 117 mg/dl and 116 mg/dl (2×) and 128 mg/dl and 136 mg/dl and 121 mg/dl and 86 mg/dl and 167 mg/dl
- Insulin (plasma) (GK rats [1]; [6]): 1.611 ng/mL and 1.625 ng/mL and 1.542 ng/mL and 2.593 ng/mL and 2.136 ng/mL and 0.682 ng/mL and 1.668 ng/mL and 1.737 ng/mL
- Blood Glucose (GK rats [1]; 3 mpk PO, 120 min after glucose challenge): 98 mg/dl and 130 mg/dl and 111 mg/dl and 112 mg/dl and 104 mg/dl (2×) and 78 mg/dl and 124 mg/dl
- Insulin AUC (GK rats [1]; 3 mpk PO): 154.858 and 139.888 and 150.655 and 143.381 and 149.287 and 136.931 and 166.524 and 165.471
- Blood Glucose AUC (GK rats [1]; 3 mpk PO): 13845 and 15230 and 19575 and 14655 and 17655 and 16235 and 16890 and 15775
- Insulin (plasma) (GK rats [1]; 3 mpk PO, time 0 min (before glucose challenge)): 2.038 ng/mL and 2.813 ng/mL and 2.511 ng/mL and 1.822 ng/mL and 2.53 ng/mL and 1.993 ng/mL and 3.94 ng/mL and 2.292 ng/mL
- Insulin (plasma) (GK rats [1]; 3 mpk PO, time -70 min (before dosing)): 1.014 ng/mL and 1.059 ng/mL and 0.86 ng/mL and 1.354 ng/mL and 1.26 ng/mL and 1.009 ng/mL and 0.738 ng/mL and 0.715 ng/mL
- Insulin (plasma) (GK rats [1]; 10 mpk PO, 10 min after glucose challenge): 2.601 ng/mL and 2.364 ng/mL and 2.726 ng/mL and 5.09 ng/mL
- Blood Glucose (GK rats [1]; 10 mpk PO, 40 min after glucose challenge): 175 mg/dL and 159 mg/dL and 143 mg/dL and 141 mg/dL and 190 mg/dL and 140 mg/dL and 169 mg/dL and 138 mg/dL
- Blood Glucose (GK rats [1]; [7]): 112 mg/dL and 121 mg/dL and 110 mg/dL and 96 mg/dL and 134 mg/dL and 125 mg/dL and 136 mg/dL and 122 mg/dL
- Insulin (plasma) (GK rats [1]; [7]): 3.212 ng/mL and 2.293 ng/mL and 2.244 ng/mL and 2.355 ng/mL and 1.203 ng/mL and 2.734 ng/mL and 1.35 ng/mL and 1.965 ng/mL
- Blood Glucose (GK rats [1]; 10 mpk PO, 120 min after glucose challenge): 95 mg/dL and 96 mg/dL and 92 mg/dL and 103 mg/dL and 108 mg/dL and 106 mg/dL and 90 mg/dL and 86 mg/dL
- Insulin AUC (GK rats [1]; 10 mpk PO): 214.776 and 171.523 and 203.357 and 192.34 and 162.197 and 187.807 and 233.894 and 115.015
- Blood Glucose AUC (GK rats [1]; 10 mpk PO): 15625 and 16245 and 14660 and 15615 and 15760 and 13890 and 14070 and 17780
- Insulin (plasma) (GK rats [1]; 10 mpk PO, time 0 min (before glucose challenge)): 4.429 ng/mL and 3.472 ng/mL and 2.279 ng/mL and 3.372 ng/mL and 2.041 ng/mL and 3.234 ng/mL and 3.429 ng/mL and 2.217 ng/mL
- Insulin (plasma) (GK rats [1]; 10 mpk PO, time -70 min (before dosing)): 1.186 ng/mL and 1.004 ng/mL and 1.491 ng/mL and 1.304 ng/mL and 0.764 ng/mL and 1.19 ng/mL and 0.996 ng/mL and 0.784 ng/mL
- Blood Glucose (GK rats [1]; 10 mpk PO, time AM (fed, before dosing)): 188 mg/dL and 169 mg/dL and 124 mg/dL and 160 mg/dL
- MED (maximally efficacious dose) in OGTT (GK rats [1]; GK rats, PO): 3 mg/kg
- Glucose Production, GNG Glycerol (GK rats [2]): 9.192 µmol/kg/min and 6.083 µmol/kg/min and 7.998 µmol/kg/min and 7.217 µmol/kg/min and 7.842 µmol/kg/min and 8.659 µmol/kg/min and 3.467 µmol/kg/min and 8.678 µmol/kg/min
- Glucose Production, GNG TCA (GK rats [2]): 36.7882 µmol/kg/min and 38.5819 µmol/kg/min and 33.1225 µmol/kg/min and 31.7162 µmol/kg/min and 37.3311 µmol/kg/min and 31.203 µmol/kg/min and 37.9138 µmol/kg/min and 30.2175 µmol/kg/min
- Glucose Production, GNG Total (GK rats [2]): 45.9798 µmol/kg/min and 44.6651 µmol/kg/min and 41.1202 µmol/kg/min and 38.9333 µmol/kg/min and 45.1729 µmol/kg/min and 39.8625 µmol/kg/min and 41.3808 µmol/kg/min and 38.8959 µmol/kg/min
- Glucose Production, Glycogenolysis (GK rats [2]): 21.2266 µmol/kg/min and 17.3215 µmol/kg/min and 19.9927 µmol/kg/min and 20.4645 µmol/kg/min and 22.2628 µmol/kg/min and 19.9186 µmol/kg/min and 23.4568 µmol/kg/min and 19.0453 µmol/kg/min
